From US20240423983A1, “ENHANCEMENT OF CD47 BLOCKADE THERAPY WITH DHFR INHIBITORS” (PF Argentum IP Holdings LLC, priority 2021, published 2024)
Like-named read-outs stand apart in the source and are kept apart here.

Experiments:
[1] = system: human non-small cell lung cancer (NSCLC) xenograft; settings: 2 mg/kg pralatrexate-treated group; cited from earlier work
[2] = system: NCI-H460 NSCLC xenograft; settings: cited from earlier work
[3] = system: human T cell lymphoma cell line HH; assay: macrophage phagocytosis assay on human lymphoma cell line HH; type: cell-based; settings: HH cells (CD47-sensitive), 2 h co-culture with macrophages; FIG. 1; vs single agents or no-treatment control
Method: (§1) A macrophage phagocytosis assay was conducted in order to assess the effects of the combination of a DHFRi and CD47 blocking agent as compared to the agents individually on macrophage phagocytosis of human lymphoma cells.
(§2) For the assay, the DHFRi was pralatrexate, and the CD47 blocking agent was an Fc fusion protein comprising soluble SIRPα (TTI-621). The lymphoma cells were human T cell lymphoma cell lines HH (ATCC Ref. CRL-2105) (a mature T cell line from peripheral blood of a patient with aggressive cutaneous T cell leukemia/lymphoma) or H9 (ATCC Ref. HTB-176) (a cutaneous T cell lymphoma). Thus, there were 4 experimental conditions for each lymphoma cell type: A) no treatment; B) pralatrexate only; C) TTI-621 (SIRPα-IgG1 Fc) only; and D) combination of pralatrexate and TTI-621.
(§3) PBMC from normal donors were purchased from BioIVT and informed consent was obtained from all donors. CD14+ monocytes were isolated from PBMCs by positive selection using human monocyte isolation kit. […] Phagocytosis was assessed as % VPD450+ cells of live, single CD14+CD11b+ macrophages by flow cytometry.

[4] = system: human T cell lymphoma cell line H9; assay: macrophage phagocytosis assay on human lymphoma cell line H9; type: cell-based; settings: H9 cells (CD47-insensitive), 2 h co-culture with macrophages; FIG. 2; vs single agents or no-treatment control
Method: as §1, §2, §3

Compound | tumor growth inhibition (TGI) [1] [%] | tumor growth inhibition (TGI) ([2]; 1 mg/kg) [%] | tumor growth inhibition (TGI) ([2]; 2 mg/kg) [%] | percentage phagocytosis (% VPD450+ cells of live, single CD14+CD11b+ macrophages) [3] | percentage phagocytosis (% VPD450+ cells of live, single CD14+CD11b+ macrophages) [4]
C#CCC(Cc1cnc2nc(N)nc(N)c2n1)c1ccc(C(=O)N[C@@H](CCC(=O)O)C(=O)O)cc1 (some centres unmarked) [pralatrexate, Pralatrexate] | 38 | 34 | 52 |  | 
TTI-621: Fc fusion protein comprising soluble SIRPα (SIRPα-IgG1 Fc), SEQ ID NO: 9; CD47 blocking agent |  |  |  | increased phagocytosis | not present
